Values of other authors in patent publication US20250049951A1, “NUCLEIC ACID COMPOSITIONS AND USES THEREOF” (SURGE Therapeutics, Inc., priority 2021, published 2025).
Several values for one entry are separate records, joined by “and”; a condition that tells them apart may be missing. Equal values may be shown once.

Columns and labels:
TLR8 = biological target: T1, TLR8 (Homo sapiens, UniProt Q9NR97); conditions: TLR8-transfected HEK293 cells
T1 construct: expressed in transfected cells; host or cells: HEK293
T1 sequence (Q9NR97 27-1041): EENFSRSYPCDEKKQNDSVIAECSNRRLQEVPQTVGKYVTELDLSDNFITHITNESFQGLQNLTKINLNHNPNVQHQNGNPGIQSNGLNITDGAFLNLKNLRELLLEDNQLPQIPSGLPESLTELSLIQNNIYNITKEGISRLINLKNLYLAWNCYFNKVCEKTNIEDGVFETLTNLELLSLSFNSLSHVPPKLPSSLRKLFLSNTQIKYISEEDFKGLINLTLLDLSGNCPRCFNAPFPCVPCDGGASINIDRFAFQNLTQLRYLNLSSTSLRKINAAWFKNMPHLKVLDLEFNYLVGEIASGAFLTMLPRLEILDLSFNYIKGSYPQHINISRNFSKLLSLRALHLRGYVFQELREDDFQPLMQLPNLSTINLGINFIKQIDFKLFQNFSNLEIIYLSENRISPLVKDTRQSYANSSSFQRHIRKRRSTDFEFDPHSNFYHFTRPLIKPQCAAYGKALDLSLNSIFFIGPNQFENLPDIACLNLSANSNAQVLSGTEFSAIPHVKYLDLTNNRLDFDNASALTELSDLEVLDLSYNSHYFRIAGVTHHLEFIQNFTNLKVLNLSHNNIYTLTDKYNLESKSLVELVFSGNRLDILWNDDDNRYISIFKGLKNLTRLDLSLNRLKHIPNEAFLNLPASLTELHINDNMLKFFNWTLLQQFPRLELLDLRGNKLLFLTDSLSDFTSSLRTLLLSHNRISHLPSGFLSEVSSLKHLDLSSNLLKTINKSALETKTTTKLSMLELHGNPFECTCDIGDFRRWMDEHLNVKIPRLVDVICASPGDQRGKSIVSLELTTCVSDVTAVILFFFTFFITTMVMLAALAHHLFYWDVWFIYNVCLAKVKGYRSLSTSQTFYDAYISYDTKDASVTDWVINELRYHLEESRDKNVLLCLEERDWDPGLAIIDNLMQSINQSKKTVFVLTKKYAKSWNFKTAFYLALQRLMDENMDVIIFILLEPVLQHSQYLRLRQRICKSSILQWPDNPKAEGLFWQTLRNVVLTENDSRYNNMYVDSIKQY

TLR7 = biological target: T2, TLR7 (Homo sapiens, UniProt Q9NYK1)
T2 construct: expressed in transfected cells; host or cells: HEK293
T2 sequence (Q9NYK1 27-1049): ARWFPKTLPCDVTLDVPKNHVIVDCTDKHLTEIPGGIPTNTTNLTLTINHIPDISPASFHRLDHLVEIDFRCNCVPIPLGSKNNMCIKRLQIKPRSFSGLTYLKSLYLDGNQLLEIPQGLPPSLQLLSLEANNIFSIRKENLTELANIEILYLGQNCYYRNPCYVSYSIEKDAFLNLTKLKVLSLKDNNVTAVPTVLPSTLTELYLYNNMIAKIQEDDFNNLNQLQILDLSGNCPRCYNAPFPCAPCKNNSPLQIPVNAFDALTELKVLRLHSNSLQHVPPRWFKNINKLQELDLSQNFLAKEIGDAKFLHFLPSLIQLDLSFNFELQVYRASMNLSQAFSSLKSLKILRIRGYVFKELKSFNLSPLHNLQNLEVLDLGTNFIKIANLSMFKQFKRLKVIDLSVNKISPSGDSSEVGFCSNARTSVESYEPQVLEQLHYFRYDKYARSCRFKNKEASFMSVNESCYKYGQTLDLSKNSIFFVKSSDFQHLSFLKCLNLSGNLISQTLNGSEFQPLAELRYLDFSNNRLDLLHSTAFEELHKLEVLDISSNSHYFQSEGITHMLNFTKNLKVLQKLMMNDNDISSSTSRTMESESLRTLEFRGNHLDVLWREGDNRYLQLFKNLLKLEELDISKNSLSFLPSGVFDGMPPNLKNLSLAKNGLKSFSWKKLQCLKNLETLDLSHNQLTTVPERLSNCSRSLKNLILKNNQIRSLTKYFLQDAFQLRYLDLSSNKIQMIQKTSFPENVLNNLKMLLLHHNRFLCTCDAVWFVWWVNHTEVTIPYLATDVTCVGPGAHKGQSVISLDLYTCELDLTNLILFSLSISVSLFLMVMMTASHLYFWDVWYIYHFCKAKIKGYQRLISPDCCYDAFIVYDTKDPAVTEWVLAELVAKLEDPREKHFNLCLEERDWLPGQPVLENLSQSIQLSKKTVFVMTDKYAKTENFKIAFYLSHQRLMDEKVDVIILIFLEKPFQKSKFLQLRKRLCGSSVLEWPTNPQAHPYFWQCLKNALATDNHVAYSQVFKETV

Compound | concentration inducing NF-κB activation (TLR8) | amount required to activate NF-κB in TLR7- relative to TLR8-transfected HEK293 cells (TLR7; times more than the 0.4 μM needed in TLR8 cells) | potency in inducing NF-κB activation relative to CL075 (TLR8; more potent than CL075) | potency in inducing NF-κB activation relative to R848 (TLR8; more potent than R848) | water solubility | concentration inducing NF-κB activation (TLR7; TLR7-transfected HEK293 cells)
CCCc1nc2c(N)nc3ccccc3c2s1 [CL075] | 0.4 μM and 0.1 μg/ml | ~10 times | – | – | – | –
CCOC(=O)C1=Cc2ccc(-c3cccc(C#N)c3)cc2N=C(N)C1 [TL8-506] | – | – | ~25 × | ~50 × | – | –
CCOCC1Nc2c(N)nc3ccccc3c2N1 (stereo not shown) [CL097] | 4 μM and 1 μg/ml | – | – | – | ≥ 20 mg/mL | 0.4 μM and 0.1 μg/ml
